Assay results taken from patent US5622983A, “N-substituted cycloalkyl and polycycloalkyl α-substituted Trp-Phe- and phenethylamine derivatives” (Warner-Lambert Company, priority 1995, dated 1997).

Assays:
[1] = Light/dark exploration test (anxiolytic activity); format: in vivo, mouse
Procedure: In FIG. 2 the number of mice was 5 and the pretreatment time was 40 minutes. The compound was given p.o. in 0.1, 1, and 10 mg/kg doses.
The apparatus was an open-topped box, 45 cm long, 27 cm wide, and 27 cm high, divided into a small (2/5) area and a large (3/5) area by a partition that extended 20 cm above the walls. There was a 7.5×7.5 cm opening in the partition at floor level. The small compartment was painted black and the large compartment white. The floor of each compartment was marked into 9 cm squares. The white compartment was illuminated by a 100-watt tungsten bulb 17 cm above the box and the black compartment by a similarly placed 60-watt red bulb. The laboratory was illuminated with red light.
All tests were performed between 13 hundred hours, 0 minutes and 18 hundred hours, 0 minutes. Each mouse was tested by placing it in the center of the white area and allowing it to explore the novel environment for five minutes. Its behavior was recorded on videotape and the behavioral analysis was performed subsequently from the recording. Five parameters were measured: the latency to entry into the dark compartment, the time spent in each area, the number of transitions between compartments, the number of lines crossed in each compartment, and the number of rears in each compartment.
Drugs were dissolved in water or saline and administered either subcutaneously, intraperitoneally, or by mouth (PO) via a stomach needle.

[2] = tested on: LoVo cells; experiment: In vitro proliferation of LoVo cells (tetrazolium salt colorimetric assay); format: cell-based, human
Procedure: LoVo was obtained from the American Tissue Type Collection (ATCC CCL 229). Five×10^3 to 1×10^4 LoVo cells were cultured in 200 μL of serum containing RPMI in 96-well flat-bottomed titre plates for 24 hours. […] Cell proliferation was measured indirectly using a tetrazolium salt colorimetric assay for cellular respiration (Merlin JL, Azzi S, Lignon D, Ramacci C, Zeghari N, Guillemin F. MTT assays allow quick and reliable measurement of the response of human tumor cell to photodynamic therapy. Eur. J. Cancer, 28(8/9):1452-1458 (1992)).

[3] = Rat Social Interaction Test; format: in vivo; settings: 0,001 to 1.0 mg/kg s.c., paired rats
Source text: (Costall, B., University of Bradford)

[4] = tested on: pentagastrin stimulated gastric acid secretion; experiment: Pentagastrin stimulated gastric acid secretion (Ghosh and Schild perfused stomach); format: in vivo, rat; settings: 1 nmole/kg pentagastrin
Procedure: They were anesthetized with urethane (1.5 g/kg IP) and the trachea cannulated to aid spontaneous respiration. The stomach was perfused continuously using a modification of the original method of Ghosh & Schild in "Continuous recording of acid secretion in the rat", Br. J. Pharmac. […] The fluid was propelled by a roller pump (Gilson, Minipuls 2), through heating coils to bring its temperature to 37°±1° C. The perfusion fluid was collected by the fundic collecting funnel and passed to a pH electrode connected to a Jenway pH meter (PHM6). An output was taken from the pH meter to a Rikadenki chart recorder for the on-line recording of the pH of the gastric perfusate.
Pentagastrin was stored as a frozen aliquot and diluted to the required concentrations with sterile 0.9% w/v NaCl. Novel compounds were dissolved in sterile 0.9% w/v NaCl on the day of the experiment. Drugs were administered IV through a cannulated jugular vein as a bolus in a dose volume of 1 mL/kg washed in with 0.15 mL 0.9% w/v NaCl. Basal pH was allowed to stabilize before administration of compounds was begun.

[5] = 1 mg/kg SC, five-minute measurement periods

Structure (SMILES): CC(Cc1c[nH]c2ccccc12)(NC(=O)OC1C2CC3CC(C2)CC1C3)C(=O)NCC(NC(=O)CCC(=O)O)c1ccccc1 (stereo not drawn) [Example 20, [R-(R*,R*)-4-[[2-[[3-(1H-indol-3-yl)-2-methyl-1-oxo-2-[[(tricyclo[3.3.1.1^3,7]dec-2-yloxy)carbonyl]amino]propyl]amino]-1-phenylethyl]amino]-4-oxobutanoic acid]
- time spent in the light area of the test box ([1]; 1 mg/kg PO): significantly (p <0.01) increased the time spent in the light area
- crossings into the dark area [1, 5]: 24
- crossings into the light area [1, 5]: 85
- anxiolytic activity, orally administered (FIG. 2) ([1]; p.o. 0.1, 1, and 10 mg/kg, pretreatment 40 minutes): effectiveness
- anxiolytic activity by the subcutaneous route ([1]; subcutaneous): active
- cellular proliferation expressed as a percentage of control ([2]; 10^-1 M, 24 hours): 58.93±7.30%
- cellular proliferation expressed as a percentage of control ([2]; 10^-1 M, 48 hours): 82.60±2.33%
- cellular proliferation expressed as a percentage of control ([2]; 10^-1 M, 72 hours): 80.53±3.06%
- cellular proliferation expressed as a percentage of control ([2]; 10^-7 M, 24 hours): 81.60±6.62%
- cellular proliferation expressed as a percentage of control ([2]; 10^-7 M, 48 hours): 95.33±2.50%
- cellular proliferation expressed as a percentage of control ([2]; 10^-7 M, 72 hours): 84.71±6.97%
- cellular proliferation expressed as a percentage of control ([2]; 10^-8 M, 24 hours): 70.13±7.15%
- cellular proliferation expressed as a percentage of control ([2]; 10^-8 M, 48 hours): 93.20±4.04%
- cellular proliferation expressed as a percentage of control ([2]; 10^-8 M, 72 hours): 85.93±4.19%
- cellular proliferation expressed as a percentage of control ([2]; 10^-9 M, 24 hours): 62.47±7.20%
- cellular proliferation expressed as a percentage of control ([2]; 10^-9 M, 48 hours): 82.73±2.97%
- cellular proliferation expressed as a percentage of control ([2]; 10^-9 M, 72 hours): 79.07±3.18%
- cellular proliferation expressed as a percentage of control ([2]; 10^-11 M, 24 hours, LoVo, serum-free RPMI): 66.47±6.72%
- cellular proliferation expressed as a percentage of control ([2]; 10^-11 M, 48 hours): 80.47±2.64%
- cellular proliferation expressed as a percentage of control ([2]; 10^-11 M, 72 hours): 78.87±3.25%
- concentrations with significant inhibition ([2]; after 24 and 72 hours (ANOVA)): 10^-11 to 10^-8 M
- concentrations with significant inhibition ([2]; at 48 hours (ANOVA)): 10^-11 to 10^-9 M
- time of maximum inhibition ([2]; cultures not refed with compound): 24 h
- time spent in social interaction compared with control (FIG. 13) [3]: increase in time spent in social interaction
- reversibility of the antagonism [4]: reversible with full recovery of the response to pentagastrin
- effect on stimulation of gastric acid secretion produced by pentagastrin ([4]; compound IV, anesthetized rat): antagonized
